# Assay results as given in PubChem BioAssay (NCI).
#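 All cell lines were grown in 96-well plates and treated with compound for 48 hours. GI50: concentration for 50% inhibition of growth. TGI: total growth inhibition.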
# How the values were obtained:
# Assay in all cases: growth of human tumour cells (NCI), 48 h
# OVCAR-4 ovarian = system: OVCAR-4 ovarian
# SNB-75 CNS = system: SNB-75 CNS
# NCI/ADR-RES ovarian = system: NCI/ADR-RES ovarian
# NCI-H226 lung = system: NCI-H226 lung
# SK-MEL-5 melanoma = system: SK-MEL-5 melanoma
# HT29 colon = system: HT29 colon
# KM12 colon = system: KM12 colon
# CCRF-CEM leukemia = system: CCRF-CEM leukemia
SMILES,GI50 (OVCAR-4 ovarian) [µM],TGI (OVCAR-4 ovarian) [µM],GI50 (SNB-75 CNS) [µM],TGI (SNB-75 CNS) [µM],GI50 (NCI/ADR-RES ovarian) [µM],TGI (NCI/ADR-RES ovarian) [µM],GI50 (NCI-H226 lung) [µM],TGI (NCI-H226 lung) [µM],GI50 (SK-MEL-5 melanoma) [µM],TGI (SK-MEL-5 melanoma) [µM],GI50 (HT29 colon) [µM],TGI (HT29 colon) [µM],GI50 (KM12 colon) [µM],TGI (KM12 colon) [µM],TGI (CCRF-CEM leukemia) [µM],GI50 (CCRF-CEM leukemia) [µM]
COc1cc(-c2ccc(=O)oc2C#Cc2ccccc2)cc(OC)c1OC,> 100,> 100,12.1,32.6,> 100,> 100,22.8,> 100,3.49,> 100,16.6,> 100,34.6,> 100,–,–
COc1ccc2c(c1)CC1N(C)CCC13CCCCC23 (stereo unspecified),–,> 100,–,> 100,–,> 100,–,> 100,–,> 100,–,> 100,–,> 100,> 100,–
COc1c(OC)c(OC)c(-c2cc(=O)c3c(OC)c(OC)c(OC)c(OC)c3o2)c(OC)c1OC,–,33.7,–,> 100,–,78.9,–,> 100,–,74.9,–,86.4,–,–,> 100,–
CCN(CC)CCNC(=O)C(Cl)=C1C(Cl)=C(Cl)C(Cl)=C1Cl,4.17,15.6,2.21,6.78,2.98,> 100,4.08,35.8,2.98,11.1,3.49,12.2,2.75,10.6,> 100,3.15
N/C(=N\C(N)=N\c1nc2ccccc2s1)c1ccnc(Br)c1,7.83,> 100,2.33,6.89,2.62,7.95,15.9,> 100,3.49,> 100,3.55,> 100,5.19,> 100,> 100,3.7
O=C(c1ccccc1)c1c2n(c3c1cc(O)c1ccccc13)CCN2,1.53,2.86,2.22,4.76,23.5,> 100,18.6,41.3,12.1,25.1,3.67,15.5,3.08,8.88,4.67,1.99
Cc1cc2nc3c4cc([N+](=O)[O-])ccc4n(CCN(C)C)c3nc2cc1C,0.527,6.6,0.842,2.7,0.382,4.6,0.966,5.81,1.02,2.21,0.387,2.33,0.56,> 100,21.3,0.642
O=C1c2ccccc2-c2ccccc2C1(Cl)Cl,0.19,0.337,1.62,3,0.398,1.85,1.79,3.49,1.32,2.63,2.52,7.57,1.73,3.17,7.03,1.65
Oc1[nH]c2ccccc2c1/C=c1/ccc2c(c1)N=C(c1cc(F)cc(F)c1)N=2,3.33,13.5,3.22,17.7,4.18,17.7,11.4,34.5,5.82,19.1,3.6,16.2,4.36,19,6.91,2.44
CC(=O)Nc1ccc(Cc2ccc3[nH]c(=O)cc(C)c3c2)cc1,–,> 100,–,28.1,–,> 100,–,> 100,–,> 100,–,> 100,–,> 100,> 100,–
CNC(=O)c1cc(Oc2ccc3nc(NC(=O)Nc4cc(C(F)(F)F)cc(C(F)(F)F)c4)sc3c2)ccn1,0.958,2.73,1,2.7,–,–,1.45,3.57,0.593,2.09,1.21,2.73,0.444,2,5.83,1.07
CC/C(=C(/CC)c1ccc(O)cc1)c1ccc(O)cc1,8.06,37,2.2,6.48,3.09,20.2,14.6,36,3.02,12.9,5.16,17.9,3.64,12.9,–,–
NCCCCCCCCCn1c2c(c3ccccc3c1=O)C(=O)c1ccccc1-2,10.3,25.9,10.7,21.7,9.47,22.4,–,–,8.4,17.7,8.5,27.1,9.53,22.2,> 50,4.14
Nc1nc(-c2ccc3ccccc3c2)cc(-c2cc(-c3ccc4ccccc4c3)nc(N)n2)n1,–,> 100,–,–,–,> 100,–,> 100,–,> 100,–,> 100,–,> 100,> 100,–
O=c1[nH]c(-c2ccc([N+](=O)[O-])cc2)nc2ccc(Cl)cc12,–,–,–,> 100,–,–,–,–,–,> 100,–,> 100,–,> 100,–,–
COC(=O)[C@H](C)[C@@H]1CC[C@](C)(CCC2=C(C)CCCC2(C)C)OO1,–,> 25,–,> 25,–,> 25,–,–,–,> 25,–,> 25,–,> 25,> 25,–
CC(C)(N)C(=O)N[C@@H]1C(=O)N2[C@@H]1SC(C)(C)[C@@H]2C(=O)O,–,> 100,–,> 100,–,> 100,–,> 100,–,> 100,–,> 100,–,> 100,–,–
CN1c2ccccc2S(=O)(=O)n2c(COc3ccccc3)nnc21,–,> 100,–,–,–,> 100,–,> 100,–,> 100,–,> 100,–,> 100,> 100,–
C=C(C)[C@@H]1CC[C@]2(C(=O)N3CCN(C)CC3)CC[C@]3(C)[C@H](CC[C@@H]4[C@@]5(C)CC[C@H](O)C(C)(C)[C@@H]5CC[C@]43C)[C@@H]12,1.77,3.37,1.64,3.27,–,–,2.07,5,1.72,3.15,1.41,3.09,2.09,4.03,–,–
CCC1OC(=O)CC(O)C(C)C(OC2OC(C)CC(N(C)C)C2O)C(CC=O)CC(C)C(=O)/C=C/C2(C)OC2C1C (stereo unspecified),–,–,–,40.8,–,86.7,–,49.6,–,29.3,–,38.3,–,28.6,26.2,–
